Active and inactive are the calls of the source. No rule for the calls is given here.
System: GENE-TOX genotoxicity assays, various organisms and cells
Experiment: GENE-TOX mutagenicity studies
Settings: for call: Assay Type: In vivo carcinogenicity studies
[1] = Species/Cell Type: Nonhuman, Assay Type: Sister-chromatid exchange (SCE) in vitro, Assay Code: SC2+D, Dose Response: With dose response, Evaluation Type: Evaluation B (Post-1980)
[2] = Species/Cell Type: Salmonella typhimurium (one or more of the five standard strains: TA98, TA100, TA1535, TA1537, and TA1538), Assay Type: Histidine reverse gene mutation, Ames assay, Assay Code: SALT, Evaluation Type: Evaluation A (Pre-1980)
[3] = Species/Cell Type: Escherichia coli polA (W3119 vs P3478), Assay Type: Rec-assay, DNA effects (bacterial DNA repair), Assay Code: RE1+, Evaluation Type: Evaluation A (Pre-1980)
[4] = Species/Cell Type: Mammalian polychromatic erythrocytes, Assay Type: Micronucleus test, chromosome aberrations, Assay Code: MNTT, Evaluation Type: Evaluation A (Pre-1980)
[5] = Species/Cell Type: Nonhuman, Assay Code: CCG+, Evaluation Type: Evaluation A (Pre-1980)
[6] = Species/Cell Type: Nonhuman, Assay Type: Sister-chromatid exchange (SCE) in vitro, Assay Code: SC2+, Evaluation Type: Evaluation B (Post-1980)
[7] = Species/Cell Type: Salmonella typhimurium (one or more of the five standard strains: TA98, TA100, TA1535, TA1537, and TA1538), Assay Type: Histidine reverse gene mutation, Ames assay, Assay Code: SAL-, Evaluation Type: Evaluation A (Pre-1980)
[8] = Species/Cell Type: Salmonella typhimurium, Assay Type: Forward and reverse gene mutation, host-mediated assay, Assay Code: HMA+, Evaluation Type: Evaluation A (Pre-1980)
[9] = Species/Cell Type: Syrian hamster embryo (SHE) cells, Assay Type: Cell transformation, clonal assay, Assay Code: CTC+, Evaluation Type: Evaluation A (Pre-1980)
[10] = Species/Cell Type: Human, Assay Type: Sister-chromatid exchange (SCE) in vitro, Assay Code: SC1+, Evaluation Type: Evaluation B (Post-1980)
[11] = Species/Cell Type: Salmonella typhimurium (one or more of the five standard strains: TA98, TA100, TA1535, TA1537, and TA1538), Assay Type: Histidine reverse gene mutation, Ames assay, Assay Code: SAL+, Evaluation Type: Evaluation A (Pre-1980)
[12] = Species/Cell Type: Nonhuman, Assay Code: CCGT, Evaluation Type: Evaluation A (Pre-1980)
[13] = Species/Cell Type: Chinese hamster lung (V79) cells, Assay Type: Forward gene mutation at the HPRT or ouabain locus, Assay Code: V79-, Evaluation Type: Evaluation A (Pre-1980)
[14] = Species/Cell Type: Saccharomyces cerevisiae, Assay Type: Mitotic recombination or gene conversion, Assay Code: YEC-, Evaluation Type: Evaluation A (Pre-1980)

O[C@@H]1C=Cc2ccc3cc4ccccc4cc3c2[C@H]1O
mutagenic call (Species/Cell Type: Chinese hamster lung (V79) cells, Assay Type: Forward gene mutation at the HPRT or ouabain locus, Assay Code: V79-*, Activation: With metabolic activation, Evaluation Type: Evaluation A (Pre-1980)): inactive; negative | mutagenic call [1]: active; positive | mutagenic call [2]: no conclusion

C=CCc1ccc2c(c1)OCO2
mutagenic call (Species/Cell Type: Drosophila melanogaster, Assay Type: Sex-linked recessive lethal gene mutation, Assay Code: SRL-, Evaluation Type: Evaluation A (Pre-1980)): inactive; negative | mutagenic call (Species/Cell Type: Escherichia coli polA (W3110 vs P3478), Assay Type: Rec-assay, DNA effects (bacterial DNA repair), Assay Code: RE2+, Evaluation Type: Evaluation A (Pre-1980)): active; positive | mutagenic call [3]: active; positive | mutagenic call (Species/Cell Type: Human diploid fibroblasts, Assay Type: Unscheduled DNA synthesis (UDS) in vitro, DNA effects, Assay Code: UDH-*, Activation: With metabolic activation, Evaluation Type: Evaluation A (Pre-1980)): inactive; negative | mutagenic call [4]: no conclusion | mutagenic call (Species/Cell Type: Mouse, Sex: Male, Assay Type: Sperm morphology, Assay Code: SPIT, Evaluation Type: Evaluation A (Pre-1980)): no conclusion | call [5]: active; positive | mutagenic call [6]: active; positive | mutagenic call (Species/Cell Type: Saccharomyces cerevisiae, Assay Type: Mitotic recombination or gene conversion, Assay Code: YEH+, Evaluation Type: Evaluation A (Pre-1980)): active; positive | mutagenic call [7]: inactive; negative | mutagenic call [8]: active; positive | mutagenic call [9]: active; positive | mutagenic call (Species/Cell Type: Tradescantia species, Assay Type: Gene mutation, Assay Code: TRM+D, Dose Response: With dose response, Evaluation Type: Evaluation A (Pre-1980)): active; positive

COc1cc(Cc2cnc(N)nc2N)cc(OC)c1OC
mutagenic call (Species/Cell Type: Neurospora crassa, Assay Type: Aneuploidy, chromosome aberrations, Assay Code: NEN+, Evaluation Type: Evaluation A (Pre-1980)): active; positive | mutagenic call [6]: active; positive

CCOc1ccc(CC(=O)OC)cc1CSC(=N)N
mutagenic call (Species/Cell Type: Saccharomyces cerevisiae, Assay Type: Reverse gene mutation, Assay Code: YERT, Evaluation Type: Evaluation A (Pre-1980)): no conclusion

CC(C)CC=O
mutagenic call (Species/Cell Type: Human lymphocytes, Assay Type: Sister-chromatid exchange (SCE) in vitro, Assay Code: SCL+, Evaluation Type: Evaluation B (Post-1980)): active; positive | mutagenic call [10]: active; positive

O=C(O)c1ccc2c([N+](=O)[O-])cccc2n1
mutagenic call [11]: active; positive

Cc1ccc(S(=O)(=O)N(C)N=O)cc1
mutagenic call (Species/Cell Type: Arabidopsis species, Assay Type: Gene mutation, Assay Code: ARM+, Evaluation Type: Evaluation A (Pre-1980)): active; positive

Cc1c2c(c(C)c3c1ccc1ccccc13)[C@H](O)[C@@H](O)C=C2
call [12]: no conclusion

O[C@@H]1c2ccccc2-c2cc3ccc4ccccc4c3cc2[C@@H]1O
mutagenic call [13]: inactive; negative | mutagenic call (Species/Cell Type: Mouse prostate cells, Assay Type: Cell transformation, Assay Code: CTM-, Evaluation Type: Evaluation A (Pre-1980)): inactive; negative | mutagenic call [9]: active; positive

O=S(=O)(O)c1ccc(N=Nc2c(O)ccc3ccccc23)cc1
mutagenic call (Species/Cell Type: Bacillus subtilis (H17 vs M45), Assay Type: Rec-assay, spot test, DNA effects (bacterial DNA repair), Assay Code: REWT, Evaluation Type: Evaluation A (Pre-1980)): no conclusion | mutagenic call [2]: no conclusion

Nc1ccc2c(c1)-c1ccccc1C2
mutagenic call (Species/Cell Type: Fischer rat embryo (RLV/1706) cells, Assay Type: Cell transformation, viral enhanced, Assay Code: CTR-, Evaluation Type: Evaluation A (Pre-1980)): inactive; negative

O=NN1CCC(O)C1 (stereo not given)
mutagenic call [11]: active; positive

CC(=O)NO
mutagenic call (Species/Cell Type: Human lymphocytes or leukocytes, Assay Type: Chromosome aberrations in vitro, Assay Code: CY7-, Evaluation Type: Evaluation A (Pre-1980)): inactive; negative

O=C1C(=O)c2ccccc2-c2ccccc21
mutagenic call (Species/Cell Type: Allium cepa, Assay Type: Chromosome aberrations, Assay Code: ALC-, Evaluation Type: Evaluation A (Pre-1980)): inactive; negative

O=C1c2ccccc2C(=O)c2c1ccc(OCCCS(=O)(=O)O)c2O
mutagenic call (Species/Cell Type: Salmonella typhimurium (one or more of the five standard strains: TA98, TA100, TA1535, TA1537, and TA1538), Assay Type: Histidine reverse gene mutation, Ames assay, Assay Code: SAL+*, Activation: With metabolic activation, Evaluation Type: Evaluation A (Pre-1980)): active; positive

O=C1C=C(N2CC2)C(=O)C2=C1CCCC2
mutagenic call (Species/Cell Type: Drosophila melanogaster, Assay Type: Sex-linked recessive lethal gene mutation, Assay Code: SRL+, Evaluation Type: Evaluation A (Pre-1980)): active; positive

O=BOO
mutagenic call [3]: active; positive

CN(C)c1ccc(-c2ccc(N(C)C)cc2)cc1
mutagenic call [7]: inactive; negative

Nc1nnc(-c2ccc([N+](=O)[O-])o2)s1
call [5]: active; positive

O=C(O)CNC(=O)c1ccccc1
mutagenic call (Species/Cell Type: Escherichia coli WP2, Assay Type: Tryptophan reverse gene mutation, Assay Code: WP2-*, Activation: With metabolic activation, Evaluation Type: Evaluation A (Pre-1980)): inactive; negative | mutagenic call (Species/Cell Type: Escherichia coli WP2 UVRA, Assay Type: Tryptophan reverse gene mutation, Assay Code: WPU-*, Activation: With metabolic activation, Evaluation Type: Evaluation A (Pre-1980)): inactive; negative

Oc1cc2cccc3ccc4c5ccccc5cc1c4c32
mutagenic call [13]: inactive; negative | call [12]: no conclusion | mutagenic call [2]: no conclusion

O=C1OC(c2ccc(O)cc2)(c2ccc(O)cc2)c2ccccc21
mutagenic call (Species/Cell Type: Bacillus subtilis (H17 vs M45), Assay Type: Rec-assay, spot test, DNA effects (bacterial DNA repair), Assay Code: REW-, Evaluation Type: Evaluation A (Pre-1980)): inactive; negative | mutagenic call (Species/Cell Type: Bacillus subtilis (H17 vs M45T), Assay Type: Rec-assay, spot test, DNA effects (bacterial DNA repair), Assay Code: REXT, Evaluation Type: Evaluation A (Pre-1980)): no conclusion

Cc1c2ccccc2c(C(=O)O)c2ccc3ccccc3c12
mutagenic call (Species/Cell Type: Drosophila melanogaster, Assay Type: Sex-linked recessive lethal gene mutation, Assay Code: SRLT, Evaluation Type: Evaluation A (Pre-1980)): no conclusion

Clc1ccc2ccccc2n1
mutagenic call [2]: no conclusion

COP(N)(=O)SC (stereo not given)
mutagenic call (Species/Cell Type: Nonhuman, Assay Type: Sister-chromatid exchange (SCE) in vitro, Assay Code: SC2T, Evaluation Type: Evaluation B (Post-1980)): no conclusion

NC(=O)NO
mutagenic call [13]: inactive; negative | mutagenic call [3]: active; positive | mutagenic call (Species/Cell Type: Human lymphocytes or leukocytes, Assay Type: Chromosome aberrations in vitro, Assay Code: CY7+, Evaluation Type: Evaluation A (Pre-1980)): active; positive | mutagenic call [4]: no conclusion | mutagenic call (Species/Cell Type: Mouse (BALB/c-3T3) cells, Assay Type: Cell transformation, Assay Code: CTB-, Evaluation Type: Evaluation A (Pre-1980)): inactive; negative | mutagenic call (Species/Cell Type: Mouse, Sex: Male, Assay Type: Sperm morphology, Assay Code: SPI+, Evaluation Type: Evaluation A (Pre-1980)): active; positive | call [12]: no conclusion | mutagenic call [1]: active; positive | mutagenic call (Species/Cell Type: Nonhuman, Assay Type: Sister-chromatid exchange (SCE) in vitro, Assay Code: SC2-, Evaluation Type: Evaluation A (Pre-1980)): inactive; negative | mutagenic call (Species/Cell Type: Saccharomyces cerevisiae, Assay Type: Mitotic recombination or gene conversion, Assay Code: YEC+, Evaluation Type: Evaluation A (Pre-1980)): active; positive | mutagenic call (Species/Cell Type: Syrian hamster embryo (SA7/SHE) cells, Assay Type: Cell transformation, viral enhanced, Assay Code: CT7+, Evaluation Type: Evaluation A (Pre-1980)): active; positive | mutagenic call (Species/Cell Type: Tradescantia species, Assay Type: Chromosome aberrations, Assay Code: TRC+, Evaluation Type: Evaluation A (Pre-1980)): active; positive

CC(C)Oc1cc(-n2nc(C(C)(C)C)oc2=O)c(Cl)cc1Cl
mutagenic call [14]: inactive; negative

Oc1cc(O)cc(O)c1
mutagenic call (Species/Cell Type: Allium cepa, Assay Type: Chromosome aberrations, Assay Code: ALC+D, Dose Response: With dose response, Evaluation Type: Evaluation A (Pre-1980)): active; positive

Cc1n(C)c([N+](=O)[O-])c[n+]1C
mutagenic call [2]: no conclusion

O=c1[nH]c(=O)n([C@H]2C[C@H](O)[C@@H](CO)O2)cc1/C=C/Cl
mutagenic call (Species/Cell Type: Human, Assay Type: Sister-chromatid exchange (SCE) in vitro, Assay Code: SC1+D, Dose Response: With dose response, Evaluation Type: Evaluation B (Post-1980)): active; positive

C1COCCN1
mutagenic call [8]: active; positive

O=c1[nH]c2c(c(=O)n1C1CCCCC1)CCC2 (tested in a mixture with another compound)
mutagenic call [14]: inactive; negative

COc1ccc(C)cc1N
call [5]: active; positive

NC(=O)c1ccccc1
mutagenic call [10]: active; positive | mutagenic call (Species/Cell Type: Mammalian polychromatic erythrocytes, Assay Type: Micronucleus test, chromosome aberrations, Assay Code: MNT+U, Dose Response: Unconfirmed positive response, Evaluation Type: Evaluation B (Post-1980)): active; positive | mutagenic call [6]: active; positive

Source: PubChem BioAssay AID1259408 (Genetic Toxicology Data Bank (GENE-TOX), 2018)
